In patent publication US5591714A, “Derivatives of A82846” (priority 1994, dated 1997):
In brackets after ≈: the same amount, converted by molar mass.

Columns and labels:
[1] = tested on: Enterococcus faecium X66; experiment: MIC, standard agar-dilution assay; assay type: cell-based
Protocol: (§1) The formula I compounds have in vitro and in vivo activity against Gram-positive pathogenic bacteria. The MIC's were determined using a standard agar-dilution assays.
^b Formerly Streptococcus faecium X66

[2] = tested on: Staphylococcus aureus; experiment: In vivo activity, experimentally infected mice (ED50); conditions: Staphylococcus aureus infection; doses administered subcutaneously to mice 1 and 4 hours postinfection
[3] = tested on: Streptococcus pyogenes; experiment: as above; conditions: Streptococcus pyogenes infection; doses administered subcutaneously to mice 1 and 4 hours postinfection
[4] = tested on: Streptococcus pneumoniae; experiment: as above; conditions: Streptococcus pneumoniae infection; doses administered subcutaneously to mice 1 and 4 hours postinfection
[5] = tested on: Staphylococcus aureus S13E; assay type: cell-based
Protocol: as §1

[6] = tested on: Streptococcus pneumoniae Park 1; assay type: cell-based
Protocol: as §1

[7] = tested on: Haemophilus influenzae 76; experiment: MIC, standard agar-dilution assay; assay type: cell-based
Protocol: as §1

[8] = tested on: Staphylococcus epidermidis 222; experiment: MIC, standard agar-dilution assay; assay type: cell-based
Protocol: as §1

[9] = tested on: Haemophilus influenzae C.L.; experiment: MIC, standard agar-dilution assay; assay type: cell-based
Protocol: as §1

[10] = tested on: Escherichia coli EC14; experiment: MIC, standard agar-dilution assay; assay type: cell-based
Protocol: as §1

[11] = tested on: Escherichia coli TEM; experiment: MIC, standard agar-dilution assay; assay type: cell-based
Protocol: as §1

[12] = tested on: Klebsiella pneumoniae KAE; experiment: MIC, standard agar-dilution assay; assay type: cell-based
Protocol: as §1

[13] = tested on: Staphylococcus aureus X400; experiment: MIC, standard agar-dilution assay; assay type: cell-based
Protocol: as §1

[14] = tested on: Escherichia coli N10; experiment: MIC, standard agar-dilution assay; assay type: cell-based
Protocol: as §1

[15] = tested on: Staphylococcus epidermidis EPI270; experiment: MIC, standard agar-dilution assay; assay type: cell-based
Protocol: as §1

[16] = tested on: Streptococcus pyogenes C203; experiment: MIC, standard agar-dilution assay; assay type: cell-based
Protocol: as §1

[17] = tested on: Klebsiella pneumoniae X26; experiment: MIC, standard agar-dilution assay; assay type: cell-based
Protocol: as §1

[18] = tested on: Staphylococcus aureus V41; experiment: MIC, standard agar-dilution assay; assay type: cell-based
Protocol: as §1

[19] = tested on: Staphylococcus aureus NRRL X1.1; experiment: MIC, standard agar-dilution assay; assay type: cell-based
Protocol: as §1

[20] = tested on: Klebsiella pneumoniae X68; experiment: MIC, standard agar-dilution assay; assay type: cell-based
Protocol: as §1

[21] = tested on: Enterococcus faecalis 2041; experiment: MIC, standard agar-dilution assay; assay type: cell-based
Protocol: as §1
^c Formerly Streptococcus faecalis 2041

| Compound | MIC [1] | ED50 [2] [mg/kg/2] | ED50 [3] [mg/kg/2] | ED50 [4] [mg/kg/2] | MIC [5] | MIC [6] | MIC [7] [µg/mL] | MIC [8] | MIC [9] [µg/mL] | MIC [10] [µg/mL] | MIC [11] [µg/mL] | MIC [12] [µg/mL] | MIC [13] | MIC [14] [µg/mL] | MIC [15] | MIC [16] | MIC [17] [µg/mL] | MIC [18] | MIC [19] | MIC [20] [µg/mL] | other results |
| --- | --- | --- | --- | --- | --- | --- | --- | --- | --- | --- | --- | --- | --- | --- | --- | --- | --- | --- | --- | --- | --- |
| CCCCCN[C@@]1(C)C[C@H](O[C@H]2[C@H](Oc3c4cc5cc3Oc3ccc(cc3Cl)[C@@H](O)[C@@H](NC(=O)[C@@H](CC(C)C)N(C)CCCCC)C(=O)N[C@@H](CC(N)=O)C(=O)N[C@H]5C(=O)N[C@H]3C(=O)N[C@H](C(=O)N[C@H](C(=O)O)c5cc(O)cc(O)c5-c5cc3ccc5O)[C@H](O[C@H]3C[C@](C)(N)[C@@H](O)[C@H](C)O3)c3ccc(cc3)O4)O[C@H](CO)[C@@H](O)[C@@H]2O)O[C@@H](C)[C@@H]1O [Compound 7] | 2 µg/mL (≈ 1.18 µM) | 4.09 | 0.83 | 0.98 | 1 µg/mL (≈ 0.589 µM) | .5 µg/mL (≈ 0.294 µM) | > 128 | 1 µg/mL (≈ 0.589 µM) | > 128 | > 128 | > 128 | > 128 | 1 µg/mL (≈ 0.589 µM) | > 128 | 2 µg/mL (≈ 1.18 µM) | .5 µg/mL (≈ 0.294 µM) | > 128 | 1 µg/mL (≈ 0.589 µM) | 1 µg/mL (≈ 0.589 µM) | > 128 | MIC [21]: 2 µg/mL (≈ 1.18 µM) |
| CN[C@H](CC(C)C)C(=O)N[C@H]1C(=O)N[C@@H](CC(N)=O)C(=O)N[C@H]2C(=O)N[C@H]3C(=O)N[C@H](C(=O)N[C@H](C(=O)O)c4cc(O)cc(O)c4-c4cc3ccc4O)[C@H](O[C@H]3C[C@](C)(N)[C@@H](O)[C@H](C)O3)c3ccc(cc3)Oc3cc2cc(c3O[C@@H]2O[C@H](CO)[C@@H](O)[C@H](O)[C@H]2O[C@H]2C[C@](C)(NCc3ccccc3)[C@@H](O)[C@H](C)O2)Oc2ccc(cc2Cl)[C@H]1O [Compound 10] | .25 µg/mL (≈ 0.152 µM) | 0.46 | 0.2 | 0.4 | .125 µg/mL (≈ 0.0758 µM) | .125 µg/mL (≈ 0.0758 µM) | > 128 | .25 µg/mL (≈ 0.152 µM) | > 128 | > 128 | > 128 | > 128 | .5 µg/mL (≈ 0.303 µM) | > 128 | .25 µg/mL (≈ 0.152 µM) | .25 µg/mL (≈ 0.152 µM) | > 128 | .25 µg/mL (≈ 0.152 µM) | .25 µg/mL (≈ 0.152 µM) | > 128 | MIC [21]: .5 µg/mL (≈ 0.303 µM) |
| CCN(CC)c1ccc(CN[C@@]2(C)C[C@H](O[C@H]3[C@H](Oc4c5cc6cc4Oc4ccc(cc4Cl)[C@@H](O)[C@@H](NC(=O)[C@@H](CC(C)C)NC)C(=O)N[C@@H](CC(N)=O)C(=O)N[C@H]6C(=O)N[C@H]4C(=O)N[C@H](C(=O)N[C@H](C(=O)O)c6cc(O)cc(O)c6-c6cc4ccc6O)[C@H](O[C@H]4C[C@](C)(N)[C@@H](O)[C@H](C)O4)c4ccc(cc4)O5)O[C@H](CO)[C@@H](O)[C@@H]3O)O[C@@H](C)[C@@H]2O)cc1 [Compound 17] | 1 µg/mL (≈ 0.582 µM) | 0.78 | 0.23 | 0.33 | .5 µg/mL (≈ 0.291 µM) | .25 µg/mL (≈ 0.145 µM) | > 128 | .5 µg/mL (≈ 0.291 µM) | > 128 | > 128 | > 128 | > 128 | .5 µg/mL (≈ 0.291 µM) | > 128 | 1 µg/mL (≈ 0.582 µM) | .25 µg/mL (≈ 0.145 µM) | > 128 | .5 µg/mL (≈ 0.291 µM) | .5 µg/mL (≈ 0.291 µM) | > 128 | MIC [21]: 1 µg/mL (≈ 0.582 µM) |
| CN[C@H](CC(C)C)C(=O)N[C@H]1C(=O)N[C@@H](CC(N)=O)C(=O)N[C@H]2C(=O)N[C@H]3C(=O)N[C@H](C(=O)N[C@H](C(=O)O)c4cc(O)cc(O)c4-c4cc3ccc4O)[C@H](O[C@H]3C[C@](C)(N)[C@@H](O)[C@H](C)O3)c3ccc(cc3)Oc3cc2cc(c3O[C@@H]2O[C@H](CO)[C@@H](O)[C@H](O)[C@H]2O[C@H]2C[C@](C)(NCc3ccc(Br)cc3)[C@@H](O)[C@H](C)O2)Oc2ccc(cc2Cl)[C@H]1O [Compound 18] | 1 µg/mL (≈ 0.579 µM) | 1.74 | 0.15 | 0.25 | 1 µg/mL (≈ 0.579 µM) | .25 µg/mL (≈ 0.145 µM) | > 128 | .5 µg/mL (≈ 0.29 µM) | > 128 | > 128 | > 128 | > 128 | 1 µg/mL (≈ 0.579 µM) | > 128 | 1 µg/mL (≈ 0.579 µM) | .125 µg/mL (≈ 0.0724 µM) | > 128 | 1 µg/mL (≈ 0.579 µM) | 1 µg/mL (≈ 0.579 µM) | > 128 | MIC [21]: 1 µg/mL (≈ 0.579 µM) |
| CN[C@H](CC(C)C)C(=O)N[C@H]1C(=O)N[C@@H](CC(N)=O)C(=O)N[C@H]2C(=O)N[C@H]3C(=O)N[C@H](C(=O)N[C@H](C(=O)O)c4cc(O)cc(O)c4-c4cc3ccc4O)[C@H](O[C@H]3C[C@](C)(N)[C@@H](O)[C@H](C)O3)c3ccc(cc3)Oc3cc2cc(c3O[C@@H]2O[C@H](CO)[C@@H](O)[C@H](O)[C@H]2O[C@H]2C[C@](C)(NCCc3ccccc3)[C@@H](O)[C@H](C)O2)Oc2ccc(cc2Cl)[C@H]1O [Compound 24] | .5 µg/mL (≈ 0.301 µM) | 0.72 | 0.09 | 0.25 | 1 µg/mL (≈ 0.602 µM) | .25 µg/mL (≈ 0.15 µM) | > 128 | .5 µg/mL (≈ 0.301 µM) | > 128 | > 128 | > 128 | > 128 | 1 µg/mL (≈ 0.602 µM) | > 128 | .5 µg/mL (≈ 0.301 µM) | .25 µg/mL (≈ 0.15 µM) | > 128 | .5 µg/mL (≈ 0.301 µM) | .5 µg/mL (≈ 0.301 µM) | > 128 | MIC [21]: .5 µg/mL (≈ 0.301 µM) |
| CCCCCCC(=O)N[C@@]1(C)C[C@H](O[C@H]2[C@H](Oc3c4cc5cc3Oc3ccc(cc3Cl)[C@@H](O)[C@@H](NC(=O)[C@@H](CC(C)C)NC)C(=O)N[C@@H](CC(N)=O)C(=O)N[C@H]5C(=O)N[C@H]3C(=O)N[C@H](C(=O)N[C@H](C(=O)O)c5cc(O)cc(O)c5-c5cc3ccc5O)[C@H](O[C@H]3C[C@](C)(N)[C@@H](O)[C@H](C)O3)c3ccc(cc3)O4)O[C@H](CO)[C@@H](O)[C@@H]2O)O[C@@H](C)[C@@H]1O [Compound 27] | 2 µg/mL (≈ 1.2 µM) | > 1.0 | 0.5 | 0.71 | 2 µg/mL (≈ 1.2 µM) | .25 µg/mL (≈ 0.15 µM) | > 128 | 2 µg/mL (≈ 1.2 µM) | > 128 | > 128 | > 128 | > 128 | 1 µg/mL (≈ 0.599 µM) | > 128 | 2 µg/mL (≈ 1.2 µM) | .5 µg/mL (≈ 0.299 µM) | > 128 | 1 µg/mL (≈ 0.599 µM) | 1 µg/mL (≈ 0.599 µM) | > 128 | MIC [21]: 2 µg/mL (≈ 1.2 µM) |
